For assay [1], the system named is Mycobacterium tuberculosis (strain H37Rv). Briefly: MABA minimum inhibitory concentration assay (aerobic/replicating). The assay is classed as cell-based. The conditions noted are these: M.tb H37Rv, aerobic/replicating, 90% inhibition of growth; for MIC90: Mycobacterium tuberculosis.
Assay [2] concerns VERO green monkey kidney cells. Briefly: VERO mammalian cell toxicity assay. The conditions noted are these: inhibition of growth of VERO green monkey kidney epithelial cells; for IC50: Chlorocebus sabaeus. Format: cell-based.
Assay [3] relates to Mycobacterium tuberculosis (strain H37Rv). Briefly: LORA minimum inhibitory concentration assay (low-oxygen/non-replicating). As to conditions: M.tb H37Rv, 90% inhibition of growth.

In brackets after ≈: the same amount, converted by molar mass.

Turning to “3-(4-Fluorophenyl)-N-((6-(4-methylpiperidin-1-yl)pyridin-2-yl)methyl)-5-phenylpyrazolo[1,5-a]pyrimidin-7-amine [Compound 51]”, the “MIC90 MABA” value in assay [1] was 0.94 µg/mL. Also, the “IC50 VERO” value in assay [2] worked out at 11.8 µg/mL. The “MIC90 LORA” value in assay [3] was determined as 0.85 µg/mL.

The term MIC90 denotes an inhibitory concentration at the 90% level, which refers to growth in some studies and to a panel of isolates in others. In general, IC50 refers to the concentration needed to halve the response being measured. In assay [1], `Fc1ccc(-c2cnn3c(NCc4ccccn4)ccnc23)cc1` [Compound 22, 3-(4-Fluorophenyl)-N-(pyridin-2-ylmethyl)pyrazolo[1,5-a]pyrimidin-7-amine] registered an MIC90 of 0.89 µg/mL (≈ 2.79 µM). Also, the 50% inhibitory concentration (IC50) in assay [2] is > 32 µg/mL. For the same compound, in assay [3], the “MIC90 LORA” value stood at 0.39 µg/mL (≈ 1.22 µM).

`C=Cc1cc(NCc2ccccn2)n2ncc(-c3ccc(F)cc3)c2n1` [Compound 24, 3-(4-Fluorophenyl)-N-(pyridin-2-ylmethyl)-5-vinylpyrazolo[1,5-a]pyrimidin-7-amine]: the MIC90 in assay [1] worked out at 1.48 µg/mL (≈ 4.29 µM). Also, the IC50 in assay [2] came out at 17.2 µg/mL (≈ 49.8 µM). Further, in assay [3], the “MIC90 LORA” value came out at 0.47 µg/mL (≈ 1.36 µM).

As for `COc1ccccc1-c1cc(NCc2ccccn2)n2ncc(-c3ccc(F)cc3)c2n1` [Compound 29, 3-(4-Fluorophenyl)-5-(2-methoxyphenyl)-N-(pyridin-2-ylmethyl)pyrazolo[1,5-a]pyrimidin-7-amine], the MIC90 in assay [1] is 13.3 µg/mL (≈ 31.3 µM). Further, the IC50 in assay [2] is > 32 µg/mL. Besides, the “MIC90 LORA” value in assay [3] came out at 9.0 µg/mL (≈ 21.2 µM).

Turning to `COc1cccc(-c2cc(NCc3ccccn3)n3ncc(-c4ccc(F)cc4)c3n2)c1` [Compound 31, 3-(4-Fluorophenyl)-5-(3-methoxyphenyl)-N-(pyridin-2-ylmethyl)pyrazolo[1,5-a]pyrimidin-7-amine], the MIC90 in assay [1] was found to be 3.9 µg/mL (≈ 9.17 µM). The IC50 in assay [2] is > 32 µg/mL. The “MIC90 LORA” value in assay [3] amounted to 1.7 µg/mL (≈ 4 µM).

Regarding `Fc1ccc(-c2cc(NCc3ccccn3)n3ncc(-c4ccc(F)cc4)c3n2)cc1` [Compound 32, 3,5-Bis(4-fluorophenyl)-N-(pyridin-2-ylmethyl)pyrazolo[1,5-a]pyrimidin-7-amine], the MIC90 in assay [1] turned out to be 3 µg/mL (≈ 7.26 µM). Moreover, the IC50 in assay [2] is > 32 µg/mL. The “MIC90 LORA” value in assay [3] was 0.22 µg/mL (≈ 0.532 µM).

`Cc1ccc(-c2cc(NCc3ccccn3)n3ncc(-c4ccc(F)cc4)c3n2)cc1` [Compound 33, 3-(4-Fluorophenyl)-N-(pyridin-2-ylmethyl)-5-(p-tolyl)pyrazolo[1,5-a]pyrimidin-7-amine]: the MIC90 in assay [1] is 3.7 µg/mL (≈ 9.04 µM). The IC50 in assay [2] is > 32 µg/mL. In addition, the “MIC90 LORA” value in assay [3] stood at 5.0 µg/mL (≈ 12.2 µM).

Compound `Fc1ccc(-c2cnn3c(NCc4ccccn4)cc(-c4ccc(C(F)(F)F)cc4)nc23)cc1` [Compound 37, 3-(4-Fluorophenyl)-N-(pyridin-2-ylmethyl)-5-(4-(trifluoromethyl)phenyl)pyrazolo[1,5-a]pyrimidin-7-amine] had an MIC90 in assay [1] of 3.8 µg/mL (≈ 8.2 µM). In assay [2], the IC50 is > 32 µg/mL. Further, the “MIC90 LORA” value in assay [3] was 3.6 µg/mL (≈ 7.77 µM).

In the case of `Fc1ccc(-c2cnn3c(NCc4ccccn4)cc(-c4ccncc4)nc23)cc1` [Compound 40, 3-(4-Fluorophenyl)-N-(pyridin-2-ylmethyl)-5-(pyridin-4-yl)pyrazolo[1,5-a]pyrimidin-7-amine], the MIC90 in assay [1] was > 32 µg/mL. In assay [2], the IC50 is > 32 µg/mL. For the same compound, the “MIC90 LORA” value in assay [3] amounted to 28 µg/mL (≈ 70.6 µM).

`Fc1ccc(-c2cnn3c(NCc4ccccn4)cc(-c4ccco4)nc23)cc1` [Compound 43, 3-(4-Fluorophenyl)-5-(furan-2-yl)-N-(pyridin-2-ylmethyl)pyrazolo[1,5-a]pyrimidin-7-amine] yielded an MIC90 in assay [1] of 0.96 µg/mL (≈ 2.49 µM). Also, the IC50 in assay [2] is > 32 µg/mL. Besides, the “MIC90 LORA” value in assay [3] was <0.13 µg/mL.

`CN(C)CCCc1ccc(CNc2cc(-c3ccccc3)nc3c(-c4ccc(F)cc4)cnn23)nc1` [Compound 56, N-((5-(3-(dimethylamino)propyl)pyridin-2-yl)methyl)-3-(4-fluorophenyl)-5-phenylpyrazolo[1,5-a]pyrimidin-7-amine] registered an MIC90 in assay [1] of 5.8 µg/mL (≈ 12.1 µM). Further, the IC50 in assay [2] turned out to be 20.3 µg/mL (≈ 42.2 µM). In addition, the “MIC90 LORA” value in assay [3] is given as 6.1 µg/mL (≈ 12.7 µM).

Source of the values: article PMC9506485, “Synthesis and Structure–Activity Relationships for the Anti-Mycobacterial Activity of 3-Phenyl-N-(Pyridin-2-ylmethyl)Pyrazolo[1,5-a]Pyrimidin-7-Amines” (Pharmaceuticals, 2022).
